# From US20090143279A1 (priority 2007, published 2009)
# Where two headings read alike, the source gives them in different places.
# Assays:
# OXPHOS gene expression = format: cell-based, mouse
# [1] = test system: cellular dehydrogenase activity
# [2] = test system: mitochondrial membrane potential; format: cell-based, mouse
# mtOXPHOS transcripts = format: cell-based, mouse
# cytochrome c = format: cell-based, mouse
# nuOXPHOS transcripts = format: cell-based, mouse
# reactive oxygen species = format: cell-based, mouse
# [3] = composite Z-score vs mock-treated (DMSO) wells, Conc 20 μM
# [4] = composite Z-score vs DMSO wells, Conc 20 μM
# [5] = normalized composite Z-score vs mock-treated (DMSO) wells, Conc 20 μM
# [6] = composite Z-score vs DMSO, Conc 20 μM
# [7] = Conc 20 μM, normalized score vs mock-treated (DMSO) wells
smiles,measurement,setting,value
CC1=CC(=O)[C@H]2C(C)(C)CCC[C@]2(C)[C@@]1(O)CCc1ccoc1 [solidagenone],GE-HTS,OXPHOS gene expression; [3],0.127
same,MTT,[1]; [3],0.084
same,ΔΨm,[2]; [3],−0.242
same,mitoOX,mtOXPHOS transcripts; [3],0.441
same,cyt c,cytochrome c; [3],−0.061
same,nucOX,nuOXPHOS transcripts; [3],−0.023
same,ROS,reactive oxygen species; [3],1.734
same,Viability,C2C12 myotubes; [3],−0.409
CC(=O)N[C@@H](CC(=O)N[C@@H](CCC(=O)O)C(=O)O)C(=O)O [spaglumic acid],GE-HTS,OXPHOS gene expression; [4],0.120
same,MTT,[1]; [4],−0.779
same,ΔΨm,[2]; [4],−0.685
same,mitoOX,mtOXPHOS transcripts; [4],−0.284
same,cyt c,cytochrome c,0.600
same,cyt c,cytochrome c; [4],0.191
same,nucOX,nuOXPHOS transcripts; [4],0.307
same,ROS,reactive oxygen species; [4],0.615
same,Viability,C2C12 myotubes; [4],−0.009
COc1cc2ccc(=O)oc2c2ccoc12 [sphondin],GE-HTS,OXPHOS gene expression; [3],−0.684
same,MTT,[1]; [3],−0.661
same,ΔΨm,[2]; [3],0.136
same,mitoOX,mtOXPHOS transcripts; [3],−0.666
same,cyt c,cytochrome c; [3],0.091
same,nucOX,nuOXPHOS transcripts; [3],−0.605
same,ROS,reactive oxygen species; [3],1.692
same,Viability,C2C12 myotubes; [3],−0.790
"CC[C@H](C=C[C@@H](C)[C@H]1CC[C@H]2[C@@H]3CCC4=CC(=O)CC[C@]4(C)[C@H]3CC[C@]12C)C(C)C [stigmasta-4,22-dien-3-one]",GE-HTS,OXPHOS gene expression,−0.138
same,MTT,[1],−1.294
same,ΔΨm,[2],−0.299
same,mitoOX,mtOXPHOS transcripts,−0.118
same,cyt c,cytochrome c,0.434
same,nucOX,nuOXPHOS transcripts,−0.094
same,ROS,reactive oxygen species,0.550
same,Viability,C2C12 myotubes,0.023
C[C@]12CC[C@H]3[C@@H](CC[C@]4(O)C[C@@H](O)CC[C@]34C=O)[C@@]1(O)CC[C@@H]2C1=CC(=O)OC1 [strophanthidin],GE-HTS,OXPHOS gene expression,−0.590
same,GE-HTS,OXPHOS gene expression; [4],−0.232
same,GE-HTS,OXPHOS gene expression; [5],−0.789
same,MTT,[1],−0.908
same,MTT,[1]; [4],−0.828
same,MTT,[1]; [5],−1.573
same,ΔΨm,[2],−0.175
same,ΔΨm,[2]; [4],−1.126
same,ΔΨm,[2]; [5],−0.481
same,mitoOX,mtOXPHOS transcripts,−0.190
same,mitoOX,mtOXPHOS transcripts; [4],−0.231
same,mitoOX,mtOXPHOS transcripts; [5],−1.094
same,cyt c,cytochrome c,0.287
same,cyt c,cytochrome c; [4],1.100
same,cyt c,cytochrome c; [5],0.687
same,nucOX,nuOXPHOS transcripts,−0.729
same,nucOX,nuOXPHOS transcripts; [4],−0.222
same,nucOX,nuOXPHOS transcripts; [5],−0.525
same,ROS,reactive oxygen species,0.947
same,ROS,reactive oxygen species; [4],1.582
same,ROS,reactive oxygen species; [5],1.036
same,Viability,C2C12 myotubes,−0.448
same,Viability,C2C12 myotubes; [4],0.028
same,Viability,C2C12 myotubes; [5],−1.016
C[C@]12CC[C@H]3[C@@H](CC[C@]4(O)C[C@@H](O)CC[C@]34C(=O)O)[C@@]1(O)CC[C@@H]2C1=CC(=O)OC1 [strophanthidinic acid],GE-HTS,OXPHOS gene expression; [5],−0.553
same,MTT,[1]; [5],−1.651
same,ΔΨm,[2]; [5],−0.875
same,mitoOX,mtOXPHOS transcripts; [5],−0.726
same,cyt c,cytochrome c; [5],0.166
same,nucOX,nuOXPHOS transcripts; [5],−0.400
same,ROS,reactive oxygen species; [5],−0.059
same,Viability,C2C12 myotubes; [5],−0.745
[H]/N=C(/N)NS(=O)(=O)c1ccc(N)cc1 [sulfaguanidine],GE-HTS,OXPHOS gene expression; [4],−0.571
same,MTT,[1]; [4],−0.421
same,ΔΨm,[2]; [4],0.217
same,mitoOX,mtOXPHOS transcripts; [4],−0.556
same,cyt c,cytochrome c; [4],0.147
same,nucOX,nuOXPHOS transcripts; [4],−0.522
same,ROS,reactive oxygen species; [4],0.902
same,Viability,C2C12 myotubes; [4],−0.691
Cc1noc(NS(=O)(=O)c2ccc(N)cc2)c1C [sulfisoxazole],GE-HTS,OXPHOS gene expression; [4],0.103
same,MTT,[1]; [4],−0.835
same,ΔΨm,[2]; [4],−0.543
same,mitoOX,mtOXPHOS transcripts; [4],−0.187
same,cyt c,cytochrome c,0.001
same,cyt c,cytochrome c; [4],0.649
same,nucOX,nuOXPHOS transcripts; [4],0.239
same,ROS,reactive oxygen species; [4],−0.095
same,Viability,C2C12 myotubes; [4],−1.895
COC(=O)C(C)c1ccc(C(=O)c2cccs2)cc1 (stereo not shown) [suprofen methyl ester],GE-HTS,OXPHOS gene expression; [6],0.139
same,MTT,[1]; [6],−1.160
same,ΔΨm,[2]; [6],0.577
same,mitoOX,mtOXPHOS transcripts; [6],−0.048
same,cyt c,cytochrome c; [6],−0.191
same,nucOX,nuOXPHOS transcripts; [6],0.216
same,ROS,reactive oxygen species; [6],0.591
same,Viability,C2C12 myotubes; [6],0.611
COC(=O)[C@H](O)[C@H]1C(C)(C)[C@H](OC(C)=O)[C@@H]2CC3=C4CC(=O)O[C@@H](c5ccoc5)[C@]4(C)CC[C@@H]3[C@@]1(C)C2=O [swietenolide-3-acetate],GE-HTS,OXPHOS gene expression; [3],−1.057
same,MTT,[1]; [3],−0.776
same,ΔΨm,[2]; [3],1.006
same,mitoOX,mtOXPHOS transcripts; [3],−0.838
same,cyt c,cytochrome c; [3],0.668
same,nucOX,nuOXPHOS transcripts; [3],−1.093
same,ROS,reactive oxygen species; [3],0.237
same,Viability,C2C12 myotubes; [3],−0.503
O=C(O)Cc1cc(I)c(Oc2cc(I)c(O)c(I)c2)c(I)c1 [tetrac],GE-HTS (composite Z-score),OXPHOS gene expression; [7],0.811
same,MTT (composite Z-score),[1]; [7],−0.677
same,ΔΨm (composite Z-score),[2]; [7],−1.457
same,mitoOX (composite Z-score),mtOXPHOS transcripts; [7],0.898
same,cyt c (composite Z-score),cytochrome c; [7],0.674
same,nucOX (composite Z-score),nuOXPHOS transcripts; [7],0.714
same,ROS (composite Z-score),reactive oxygen species; [7],2.718
same,Viability (composite Z-score),C2C12 myotubes; [7],1.361
CCCCNc1ccc(C(=O)OCCN(C)C)cc1 [tetracaine],GE-HTS,OXPHOS gene expression; [4],−0.280
same,MTT,[1]; [4],−0.048
same,ΔΨm,[2]; [4],−0.492
same,mitoOX,mtOXPHOS transcripts; [4],−0.034
same,cyt c,cytochrome c,−0.536
same,cyt c,cytochrome c; [4],0.383
same,nucOX,nuOXPHOS transcripts; [4],−0.376
same,ROS,reactive oxygen species; [4],0.320
same,Viability,C2C12 myotubes; [4],−0.539
